From patent publication US4569792A, “Anti-diabetic compounds” (Eli Lilly and Company, priority 1984, dated 1986)

Columns and labels:
Details in all cases: relative to human proinsulin = 1
[1] = tested on: insulin receptor (125I-insulin binding to IM-9 cells); assay: IM-9 Radioreceptor Assay
Procedure: IM-9 cells were grown in RPMI media containing 2mM glutamine, 25 mM HEPES, and 10% fetal bovine serum. […] Incubations were carried out in 1.5 ml microfuge tubes at 15° C. for two hours. Concentrations of stock solutions containing insulin, proinsulin, or compound of this invention used in the binding studies were established by amino acid analysis and by their absorbance at 276 nm. The cells were resuspended during the assay every 30 minutes by inverting the tubes several times. At the end of the incubation, the tubes were centrifuged for one minute in a Beckman Microfuge, the supernatant was aspirated, the tips of the tubes containing the cell pellet were excised, and the radioactivity was measured.

[2] = tested on: insulin receptor (125I-labeled insulin binding to isolated fat cells); assay: Isolated Fat Cell Radioreceptor Assay
Procedure: Isolated fat cells were prepared by a modification [Huber, C. T., Solomon, S. S., and Duckworth, W. C., J. Clin. Invest. […] All incubations were in Krebs-Ringer-Hepes (KRH) buffer, pH 7.4, with 4% bovine serum albumin (BSA) in a total volume of 2 ml. […] At selected times, triplicate 300 μl aliquots were removed and added to microfuge tubes containing 100 μl dinonyl phthalate [see Gliemann, J., Osterlind, K., Vinten, J., and Gammeltoft, S., Biochem. Biophys. Acta. […] After centrifugation for one minute in a microfuge, the tubes were cut through the oil layer, and the cell pellet was counted using a gamma counter to determine binding.

[3] = tested on: isolated rat adipocytes; assay: Biological Activity in Isolated Rat Adipocytes (incorporation of 2-3H-glucose in total fat cell lipid); assay type: cell-based
Procedure: Adipocytes were prepared from epididymal fat pads by a modification (Huber, supra) of the collagenase digestion procedure of Rodbell, supra. Krebs-Ringer-HEPES (KRH) buffer, pH 7.4, containing 4% bovine serum albumin and 0.55 mM glucose was used in all isolation and incubation steps.
Biological activity was assessed according to the method of Moody, A. J., Stan, M. A., Stan, M., and Glieman, J., Horm. Metab. Res. 6, 12-16 (1974) by monitoring the incorporation of 2-^3 H-glucose in total fat cell lipid. […] Radioactivity was determined in a Searle Isocap 300 liquid scintillation counter at an efficiency of approximately 30%. Blanks were prepared in which the scintillation fluid was added to the vials prior to the addition of cells. The average counts obtained from these vials were subtracted from those observed in all other samples.
Competitive binding curves and biological activity dose-response curves were analyzed using the PREFIT and ALLFIT programs [DeLean, A., Munson, P. J., and Rodbard, D., Am. J. Physiol. 235, E97-E102 (1978)] based on a four-parameter logistic model. These analyses indicated the concentration of insulin or proinsulin necessary to produce a half-maximal response, as well as the maximal and minimal values. All values are presented as the mean ± SEM.

Measured: Relative Potency

Human Proinsulin
1: all assays above
